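Protocol summary: plate cells (96-well), add compound at 5 concentrations, incubate 48 h, interpolate endpoints linearly. TGI denotes the concentration required for complete inhibition of growth.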
Legend:
Assay in all cases: growth of human tumour cells (NCI), 48 h
[1] = system: 786-0 renal
[2] = system: A549 NSCLC
[3] = system: ACHN renal
[4] = system: BT-549 breast
[5] = system: CAKI-1 renal
[6] = system: CCRF-CEM leukemia
[7] = system: COLO 205 colon
[8] = system: DU-145 prostate
[9] = system: EKVX NSCLC
[10] = system: HCC-2998 colon
[11] = system: HCT-116 colon
[12] = system: HCT-15 colon
[13] = system: HL-60(TB) leukemia
[14] = system: HOP-62 NSCLC
[15] = system: HS 578T breast
[16] = system: HT29 colon
[17] = system: IGROV1 ovarian
[18] = system: K-562 leukemia
[19] = system: KM12 colon
[20] = system: LOX IMVI melanoma
[21] = system: M14 melanoma
[22] = system: MALME-3M melanoma
[23] = system: MCF7 breast
[24] = system: MDA-MB-231 breast
[25] = system: MDA-MB-435
[26] = system: MDA-N
[27] = system: MOLT-4 leukemia
[28] = system: NCI-H226 lung
[29] = system: NCI-H23 lung
[30] = system: NCI-H460 lung
[31] = system: NCI-H522 lung
[32] = system: NCI/ADR-RES ovarian
[33] = system: OVCAR-3 ovarian
[34] = system: OVCAR-4 ovarian
[35] = system: OVCAR-5 ovarian
[36] = system: OVCAR-8 ovarian
[37] = system: PC-3 prostate
[38] = system: RXF 393 renal
[39] = system: SF-268 CNS
[40] = system: SF-295 CNS
[41] = system: SF-539 CNS
[42] = system: SK-MEL-2 melanoma
[43] = system: SK-MEL-28 melanoma
[44] = system: SK-MEL-5 melanoma
[45] = system: SK-OV-3 ovarian
[46] = system: SN12C renal
[47] = system: SNB-19 CNS
[48] = system: SNB-75 CNS
[49] = system: SR leukemia
[50] = system: SW-620 colon
[51] = system: T-47D breast
[52] = system: TK-10 renal
[53] = system: U251 CNS
[54] = system: UACC-257 melanoma
[55] = system: UACC-62 melanoma
[56] = system: UO-31 renal
[57] = system: A498 renal
[58] = system: HOP-92 NSCLC
[59] = system: RPMI-8226 leukemia

C/C=C/C(O)P1(=O)N(Cc2ccccc2)[C@@H]2CCCC[C@H]2N1Cc1ccccc1 (stereo partly specified) showed a TGI [1] of over 25 µM, a TGI [2] of over 25 µM and a TGI [3] of over 25 µM. It also gave a TGI [4] of over 25 µM, a TGI [5] of over 25 µM and a TGI [6] of over 25 µM. The TGI [7] was over 25 µM, the TGI [8] was over 25 µM and the TGI [9] was over 25 µM. It also gave a TGI [10] of over 25 µM, a TGI [11] of over 25000 nM and a TGI [12] of over 25 µM. It also gave a TGI [13] of over 25 µM, a TGI [14] of over 25 µM and a TGI [15] of over 25 µM. It also gave a TGI [16] of over 25 µM, a TGI [17] of over 25 µM and a TGI [18] of over 25 µM. It also gave a TGI [19] of over 25 µM, a TGI [20] of over 25 µM and a TGI [21] of over 25 µM. It also gave a TGI [22] of over 25 µM, a TGI [23] of over 25 µM and a TGI [24] of over 25 µM. For the same molecule, the TGI [25] was over 25 µM, the TGI [26] was over 25 µM and the TGI [27] was over 25 µM. The TGI [28] was over 25 µM, the TGI [29] was over 25 µM and the TGI [30] was over 25 µM. The TGI [31] was over 25 µM, the TGI [32] was over 25 µM and the TGI [33] was over 25 µM. It also gave a TGI [34] of over 25 µM, a TGI [35] of over 25 µM and a TGI [36] of over 25 µM. It also gave a TGI [37] of over 25 µM, a TGI [38] of over 25 µM and a TGI [39] of over 25 µM. The TGI [40] was over 25 µM, the TGI [41] was over 25 µM and the TGI [42] was over 25 µM. It also gave a TGI [43] of over 25 µM, a TGI [44] of over 25 µM and a TGI [45] of over 25 µM. It also gave a TGI [46] of over 25 µM, a TGI [47] of over 25 µM and a TGI [48] of over 25 µM. The TGI [49] was over 25 µM, the TGI [50] was over 25 µM and the TGI [51] was over 25 µM. For the same molecule, the TGI [52] was over 25 µM, the TGI [53] was over 25 µM and the TGI [54] was over 25 µM. For the same molecule, the TGI [55] was over 25 µM and the TGI [56] was over 25 µM.
COC(=O)C1=C(C(=O)OC)SC2(S1)C1=C(CCCC1)SC(C(=O)OC)=C2C(=O)OC gave a TGI [57] of 19.4 µM, a TGI [2] of 31.1 µM and a TGI [3] of 18.4 µM. It also gave a TGI [4] of 25.1 µM, a TGI [5] of 13.5 µM and a TGI [6] of 8.16 µM. For the same molecule, the TGI [7] was 23.2 µM, the TGI [8] was 3.54 µM and the TGI [9] was 26.6 µM. For the same molecule, the TGI [10] was 28.2 µM, the TGI [11] was 2920 nM and the TGI [12] was 18.1 µM. It also gave a TGI [13] of over 100 µM, a TGI [14] of 17.8 µM and a TGI [58] of 18.3 µM. The TGI [15] was 30.7 µM, the TGI [16] was 11.7 µM and the TGI [17] was 20.6 µM. The TGI [18] was 21.5 µM, the TGI [19] was 19 µM and the TGI [20] was 5.3 µM. For the same molecule, the TGI [21] was 32.5 µM, the TGI [22] was 24.3 µM and the TGI [23] was 8.43 µM. For the same molecule, the TGI [24] was 29.3 µM, the TGI [25] was 10 µM and the TGI [26] was 15.2 µM. The TGI [27] was 11.6 µM, the TGI [29] was 31.3 µM and the TGI [30] was 15.7 µM. It also gave a TGI [31] of 4.36 µM, a TGI [32] of 40.9 µM and a TGI [33] of 18.9 µM. It also gave a TGI [34] of 25.3 µM, a TGI [35] of 25.4 µM and a TGI [36] of 17.3 µM. The TGI [37] was 17.8 µM, the TGI [59] was 17.7 µM and the TGI [38] was 6.91 µM. For the same molecule, the TGI [39] was 22.3 µM, the TGI [40] was 27.8 µM and the TGI [41] was 4.27 µM. It also gave a TGI [42] of 30 µM, a TGI [43] of 22.5 µM and a TGI [44] of 23.4 µM. The TGI [45] was 28.1 µM, the TGI [46] was 14.6 µM and the TGI [47] was 30.2 µM. It also gave a TGI [50] of 17.1 µM, a TGI [51] of 13.5 µM and a TGI [52] of 24.7 µM. The TGI [53] was 19.4 µM, the TGI [54] was 28.9 µM and the TGI [55] was 25.7 µM. For the same molecule, the TGI [56] was 10.9 µM.
